Active and inactive are the calls of the source. No cut-off for these calls is given here.
Experiments:
[1] = biological target: CDC7/DBF4 (Cell division cycle 7-related protein kinase/Activator of S phase kinase) (Homo sapiens) (UniProt Q9UBU7+O00311); experiment: Inhibition of recombinant human CDC7/Dbf4 expressed in baculovirus infected Sf9 insect cells assessed as inhibition of fluorescein labelled substrate phosphorylation in presence of ATP at 10 uM measured after 60 mins by TR-FRET assay
[2] = biological target: CDC7/DBF4 (Cell division cycle 7-related protein kinase/Activator of S phase kinase) (Homo sapiens, UniProt O00311); experiment: Inhibition of recombinant human CDC7/Dbf4 expressed in baculovirus infected Sf9 insect cells assessed as inhibition of fluorescein labelled substrate phosphorylation in presence of ATP measured after 60 mins by TR-FRET assay
[3] = biological target: Cell division cycle 7-related protein kinase (Homo sapiens) (UniProt O00311); experiment: Inhibition of human CDC7 in human SH-SY5Y cells assessed as prevention of ethacrynic acid-induced cell death preincubated for 1 hr followed by incubation with ethacrynic acid for 24 hrs measured at 10 uM by MTT assay relative to control; type: cell-based
Cell division cycle 7-related protein kinase (Homo sapiens), sequence (O00311 whole entry, looked up): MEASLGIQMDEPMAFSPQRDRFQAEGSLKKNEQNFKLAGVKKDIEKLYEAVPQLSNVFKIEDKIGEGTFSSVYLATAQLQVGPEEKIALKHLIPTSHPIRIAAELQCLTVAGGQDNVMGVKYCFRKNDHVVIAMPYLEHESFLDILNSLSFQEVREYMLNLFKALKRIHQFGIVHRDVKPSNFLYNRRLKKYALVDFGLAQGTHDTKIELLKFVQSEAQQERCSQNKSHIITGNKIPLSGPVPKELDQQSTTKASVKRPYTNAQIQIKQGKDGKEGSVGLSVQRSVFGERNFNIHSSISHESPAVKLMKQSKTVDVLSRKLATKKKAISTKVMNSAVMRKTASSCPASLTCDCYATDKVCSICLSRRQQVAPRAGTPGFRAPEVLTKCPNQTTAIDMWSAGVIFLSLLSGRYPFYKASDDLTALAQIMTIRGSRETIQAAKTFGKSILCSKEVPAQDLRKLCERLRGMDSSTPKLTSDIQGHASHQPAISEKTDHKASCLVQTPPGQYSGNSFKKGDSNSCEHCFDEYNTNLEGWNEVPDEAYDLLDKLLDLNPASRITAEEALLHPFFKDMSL

CDC7/DBF4 (Cell division cycle 7-related protein kinase/Activator of S phase kinase), sequence (Q9UBU7 whole entry): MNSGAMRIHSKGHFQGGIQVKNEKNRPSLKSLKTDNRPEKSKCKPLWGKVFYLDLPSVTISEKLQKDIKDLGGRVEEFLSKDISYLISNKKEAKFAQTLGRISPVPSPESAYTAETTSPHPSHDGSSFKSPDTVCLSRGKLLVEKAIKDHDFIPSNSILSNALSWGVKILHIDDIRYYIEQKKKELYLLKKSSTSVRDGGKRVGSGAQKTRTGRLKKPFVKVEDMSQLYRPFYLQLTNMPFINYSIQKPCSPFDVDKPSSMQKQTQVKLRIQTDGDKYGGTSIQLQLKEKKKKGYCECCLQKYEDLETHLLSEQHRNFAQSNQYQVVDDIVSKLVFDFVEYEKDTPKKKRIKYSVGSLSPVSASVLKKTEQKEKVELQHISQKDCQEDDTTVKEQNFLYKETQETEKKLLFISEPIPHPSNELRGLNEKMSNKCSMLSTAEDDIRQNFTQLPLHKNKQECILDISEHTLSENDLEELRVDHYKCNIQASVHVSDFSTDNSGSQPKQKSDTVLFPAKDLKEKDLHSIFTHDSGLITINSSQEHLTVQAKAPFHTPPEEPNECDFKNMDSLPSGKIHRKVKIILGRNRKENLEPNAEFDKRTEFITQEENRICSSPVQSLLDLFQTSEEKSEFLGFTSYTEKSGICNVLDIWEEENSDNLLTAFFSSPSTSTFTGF
CDC7/DBF4 (Cell division cycle 7-related protein kinase/Activator of S phase kinase), sequence (O00311 whole entry): as the sequence (O00311 whole entry, looked up) above
CDC7/DBF4 (Cell division cycle 7-related protein kinase/Activator of S phase kinase) (Homo sapiens), sequence (O00311 whole entry, looked up): as above
CDC7/DBF4 (Cell division cycle 7-related protein kinase/Activator of S phase kinase) (Homo sapiens), sequence (Q9UBU7 whole entry, looked up): as the sequence (Q9UBU7 whole entry) above

SMILES	inhibition [1]	IC50 [2]	inhibition [3]
Clc1cccc(CSc2ncnc3c2ncn3Cc2cccc(Cl)c2)c1	30%		
O=C(CSc1[nH]cnc2ncnc1-2)c1ccc(Cl)cc1		4150 nM	
Ic1cccc(CSc2ncnc3[nH]cnc23)c1		80 nM	Active
Clc1cccc(CCSc2ncnc3[nH]cnc23)c1		300 nM	Active
Brc1cccc(CSc2ncnc3[nH]cnc23)c1		130 nM	
Brc1ccc(CSc2[nH]cnc3ncnc2-3)cc1		440 nM	Active
Fc1ccc(CCSc2ncnc3[nH]cnc23)cc1		390 nM	Active
COc1ccc(Sc2ncnc3[nH]cnc23)cc1		1720 nM	
Clc1ccccc1CSc1ncnc2c1ncn2Cc1ccccc1Cl	7%		
c1ccc(CSc2ncnc3[nH]ccc23)cc1		230 nM	Active
Clc1ccc(CCSc2ncnc3c2ncn3CCc2ccc(Cl)cc2)cc1	3%		
Brc1cccc(CSc2ncnc3[nH]ccc23)c1		390 nM	
Clc1ccc(CSc2[nH]cnc3ncnc2-3)cc1		180 nM	Active
Brc1cccc(CSc2ncnc3sccc23)c1	11%		
c1ccc(COc2[nH]cnc3ncnc2-3)cc1		170 nM	
Brc1ccc(Sc2ncnc3[nH]cnc23)cc1		1380 nM	
c1ccc(CSc2ncnc3c2ncn3Cc2ccccc2)cc1	0%		
Clc1ccccc1CSc1ncnc2[nH]cnc12		90 nM	Active
Clc1cccc(CNc2ncnc3nc[nH]c23)c1		3060 nM	
FC(F)(F)c1ccccc1CSc1ncnc2[nH]cnc12		250 nM	Active
CC(=O)Nc1ccc(CSc2ncnc3[nH]cnc23)cc1		470 nM	
Clc1ccc(CCSc2ncnc3[nH]cnc23)cc1		140 nM	Active
Clc1ccccc1CCSc1ncnc2[nH]cnc12		190 nM	Active

SMILES	inhibition [1]	IC50 [2]	inhibition [3]
Fc1cccc(CSc2ncnc3[nH]cnc23)c1		360 nM	Active
N#Cc1ccc(CSc2ncnc3[nH]cnc23)cc1		290 nM	
FC(F)(F)c1ccccc1CSc1ncnc2c1ncn2Cc1ccccc1C(F)(F)F	9%		
O=C(CSc1[nH]cnc2ncnc1-2)c1ccc([N+](=O)[O-])cc1		3110 nM	
Clc1cccc(CCSc2ncnc3c2ncn3CCc2cccc(Cl)c2)c1	8%		
O=C(CSc1ncnc2[nH]cnc12)c1ccc(Br)cc1		2120 nM	
Fc1ccc(CCSc2ncnc3c2ncn3CCc2ccc(F)cc2)cc1	12%		
FC(F)(F)c1ccc(CSc2ncnc3[nH]cnc23)cc1		360 nM	Active
CSc1ccc(CSc2ncnc3[nH]cnc23)cc1		140 nM	Active
Clc1ccccc1CCSc1ncnc2c1ncn2CCc1ccccc1Cl	4%		
O=[N+]([O-])c1cccc(CSc2ncnc3[nH]cnc23)c1		190 nM	
O=[N+]([O-])c1ccc(CSc2ncnc3[nH]cnc23)cc1		130 nM	Active
OCc1ccc(CSc2ncnc3[nH]cnc23)cc1		300 nM	
Ic1ccc(CSc2ncnc3[nH]cnc23)cc1		300 nM	Active
COc1cccc(CSc2ncnc3[nH]cnc23)c1		240 nM	Active
N#Cc1cccc(CSc2ncnc3[nH]cnc23)c1		340 nM	
Ic1ccccc1CSc1ncnc2[nH]cnc12		580 nM	Active
Brc1ccc(COc2ncnc3[nH]cnc23)cc1		910 nM	Active
Ic1ccccc1CSc1ncnc2c1ncn2Cc1ccccc1I	4%		
c1ccc(CSc2ncnc3sccc23)cc1	18%		
Clc1cccc(COc2ncnc3[nH]cnc23)c1		190 nM	Active
FC(F)(F)c1cccc(CSc2ncnc3[nH]cnc23)c1		320 nM	Active

Source: ChEMBL document CHEMBL4732086, “Targeting nuclear protein TDP-43 by cell division cycle kinase 7 inhibitors: A new therapeutic approach for amyotrophic lateral sclerosis” (Eur J Med Chem, 2021)
